Entries after “also recorded” stand apart in the source; their conditions may differ.
Legend:
[1] = tested on: uric acid-induced gouty arthritis pain in the rat; assay: pain-induced functional impairment model in the rat (PIFIR), antinociceptive effects; format: in vivo, male Wistar rats; conditions: for Maximum efficacy (ABC: X ± E.E.): ABC of the FI % temporal curve over 4 h, at the dose that generates the maximum efficacy (S-ketorolac tromethamine 3.16 mg/kg, tramadol chlorhydrate 56.23 mg/kg); for Relative efficacy: compared to S-ketorolac tromethamine (= 1.0); for antinociceptive effects, dose dependence: single acute oral administration, evaluated for 4 hours, tramadol 5.6 to 56.2 mg/kg, S-ketorolac tromethamine 0.01 to 3.16 mg/kg
Source text: In order to determine the antinociceptive effects, male Wistar rats weighing between 180 and 200 g were employed. These were handled in accordance with the Official Mexican Norm (NOM-062-ZOO-1999) and in accordance with the general principles of lab animal care (NIH publication #85-23, revised in 1985). The minimum number of test animals were used (6 animals per experimental point for antinociceptive effects, motor coordination, and gastrointestinal damage, and 10 animals per experimental point for adverse effects: lethal dose 50). The animals were kept in a room with alternate cycles of light/darkness. Twelve hours before the antinociceptive tests, the food was withdrawn, and they only had free access to water. All of these experiments were conducted during the light phase.
The analgesics were dissolved or suspended in carboxymethyl cellulose at 0.5% and administered orally in a volume of 4 ml/kg.
This methodology is commonly known as “pain-induced functional impairment model in the rat” (PIFIR). This methodology was used to determine and compare the antinociceptive effects of these analgesics.
The methodology of the PIFIR experimental procedure is briefly described below: The animals were anesthetized in an anesthesia chamber saturated with isoflurane vapors. The gouty arthritis was induced by applying an intra-articular injection (i.art.) with 0.05 ml of uric acid suspended in mineral oil (at 30%) in the right hind limb, exactly in the femur-tibia-patella joint.
A 1 ml glass syringe with a No. 22, 4 mm long needle was used for the i.art. injection. Immediately afterward, an electrode was fixed on each hind limb in the middle of the plantar calluses. After the rats recovered from the anesthesia, they were placed in a 30 cm diameter stainless steel rotating cylinder. The cylinder was rotated at 4 rpm, forcing the rats to walk for 2 minutes every half hour for a total of 6.5 hours (2.5 h to generate the gouty arthritis and 4 h to evaluate the antinociceptive effects of the analgesics). The variable measured was the time of contact of each one of the hind limbs of the rats in the cylinder.
When the electrode and the cylinder make contact, a circuit closes, and the relationship between the time of contact of the extremity to which the uric acid was administered as compared to the one to which uric acid was not administered was registered in a computer. The percentage functionality indexes (FI %) are calculated with these variables. Once the total dysfunction (FI=0%) was produced due to the effect of the uric acid, the corresponding doses of each analgesic were administered individually or in combination.
The medium and standard error of the evaluation of the antinociceptive effects are presented in all of the graphics as from time “0,” which is the moment at which the arthritis is completely developed in the rat and is the precise moment of the administration of tramadol chlorhydrate and S-ketorolac tromethamine.
With the administration of these doses, the complete doses-responses of S-ketorolac tromethamine and tramadol chlorhydrate were plotted separately in order to perform a comparative analysis for efficacy and potency. In the case of tramadol chlorhydrate, the curves were obtained through a single and acute 4-hour administration in doses with algorithmic increases (of 5.6 to 56.2 mg/kg), (FIG. 1). The S-ketorolac tromethamine temporal curves were obtained through acute administration evaluated for 4 hours in doses with algorithmic increases (from 0.01 to 3.16 mg/kg).
After this, 24 different combinations of S-ketorolac tromethamine and tramadol chlorhydrate were analyzed in order to detect the type of interaction and the most significant combinations due to the degree of efficacy or the degree of antinociceptive potency.

[2] = background statement, cited from earlier work
[3] = pharmacological / analgesic potency relative to comparators (no method given); format: in vivo

| Compound | Maximum efficacy (ABC: X ± E.E.) ([1]; po) [au] | Maximum efficacy (ABC: X ± E.E.) ([1]; po, listed as tramadol chlorhydrate) [au] | efficacy relative to that exhibited by S-ketorolac tromethamine ([1]; PIFIR, po) [%] | Relative efficacy ([1]; PIFIR, po) | antinociceptive effects, dose dependence [1] | potency ratio of the S (−) enantiomer ([2]; comparator not clearly printed) | analgesic effect relative to the racemic form [2] | potency relative to AA ([3]; times more potent than AA) [times] | potency relative to morphine ([3]; times more potent than morphine) [times] | potency relative to rac-ketorolac ([3]; times more potent than rac-ketorolac) [times] |
| --- | --- | --- | --- | --- | --- | --- | --- | --- | --- | --- |
| COc1cccc([C@@]2(O)CCCC[C@@H]2CN(C)C)c1.Cl (relative stereo) [Tramadol chlorhydrate, (1R,2R)-rel-2-[(dimethylamino)methyl]-1-(3-methoxyphenyl)cyclohexanol] | 216.7 ± 19.1 | 216.66 | 70 | 0.70 | doses-dependent antinociceptive effects; also recorded: antinociceptive effects that are dependent on the gouty arthritis-type pain dose | – | – | – | – | – |
| O=C(c1ccccc1)c1ccc2n1CC[C@@H]2C(=O)O [S-ketorolac tromethamine, 2-amino-2-hydroximethyl-1,3 propanediol (1:1) S-(−)-5-benzoyl-2,3-dihydro-1H-pyrrolizine-1-carboxylate] | 310.5 ± 13.5 | – | – | 1.0 | doses-dependent antinociceptive effects; also recorded: antinociceptive effects that are dependent on the gouty arthritis-type pain dose | approximately 60 times | almost double that of the racemic form | 1037 | 82 | 3.3 |
